Measurements: patent US12534707B2, “Method for generating cardiac tissue mimetics” (GENOME BIOLOGICS UG, priority 2019, dated 2026)
“Also recorded” adds a separate entry of the source.

How the values were obtained:
[1] = tested on: cardiac tissue mimetics (CTMs); assay: Fluorescence immunohistochemistry of CTMs (α-actinin, WGA, Atp5a1); format: cell-based, rat, human
Method: Cryosections of CTMs were stained with DAPI, anti-α-Actinin and Alexa Flour conjugate of Wheat-Germ-Agglutinin. Area of 100 cardiomyocytes per condition were quantified using ImageJ. In case of whole mount stainings, CTMs were permeabilized with 0.2% Triton® X-100 in PBS for 1 hour at room temperature followed by blocking with 5% horse serum (Sigma-Aldrich) in PBS for 30 minutes at room temperature. Primary antibodies (see Table 1) were diluted 1:200 in 5% horse serum and incubated over night at 4° C. Before using the secondary antibody (see table below), CTMs were washed three times with PBS containing 1% Tween 20 and 0.002% Triton® X-100 (referred as PBT from here after) for 20 minutes at room temperature. Secondary antibodies (1:500) and DAPI (1:1000; Carl-Roth GmbH & Co. KG) were diluted in 5% horse serum together and incubated for 4 hours at room temperature in the dark. […] Cryo-sections were prepared by embedding fixed spheroids in O.C.T medium (Tissue-Tek), snap-freezing them in liquid nitrogen and cutting them in 10 μm thick sections. Sections were permeabilized and blocked for one hour in 0.1% Triton® X100 (in PBS+BSA). Primary antibody incubated with the sections diluted 1:50-1:100 in 1 mM MgCl2, 1 mM CaCl2, 0.1 mM MnCl2, 1% Triton® X-100 or 0.2% saponin over night at 4° C. […]

[2] = tested on: cardiac tissue mimetics (CTMs); assay: Seahorse assay (OCR, ECAR) of CTMs; format: cell-based, rat, human; settings: PE-treated vs control CTMs
Method: The Agilent Seahorse XFe96 spheroid microplate was coated with Poly-D Lysine 100 μg/mL following the manual instruction. 1×KHB medium (111 mM NaCl, 4.7 mM KCl, 2 mM MgSO4, 1.2 mM Na2HPO4, 2.5 mM D-Glucose, 0.5 mM carnitine) supplemented with 6 mM D-Glucose was prepared prior the experiment. CTMs were washed twice with KHB medium and every single CTM was then transferred directly into each well of XFe96 spheroid microplate containing 175 μL of KHB medium. CTMs were centered into the micro-chamber and incubated at 37° C. in non-CO2 incubator for 1 hour. The Seahorse XF Cell Mito Stress Test was performed using sequential injection of Oligomycin (2.5 μM, Sigma, O4876), FCCP (2.0 μM, Sigma, C2920) and Antimycin A (0.5 μM, Sigma, A8674) following a 3-min-mixing and 3-min-measuring cycles for up to 2 hours. Oxygen consumption rate (OCR) and Extracellular acidification rate (ECAR) were measured and calculated using Seahorse XFe96 Analyzers (Agilent Technologies).

[3] = tested on: cardiac tissue mimetics (CTMs); assay: CTM size measurement; settings: 200 μM PE, 10 days, vs untreated control; FIG. 4
[4] = tested on: cardiac tissue mimetics (CTMs); assay: CTM vascularisation (GFP-HUVEC sprout length, thickness, branch points); format: cell-based, rat, human; settings: 200 μM PE, 10 days, vs control; for filopodia formation in CTMs: FIG. 13; for vascularization / angiogenesis of CTMs: FIGS. 13, 14, 36
[5] = tested on: cardiac tissue mimetics (CTMs); assay: Lactate dehydrogenase assay and toxicity assay (phospho-Histone H2A.X) of CTMs; format: cell-based, rat, human
Method: Media of CTMs were replaced completely with fresh medium 24 h before performing the assays. After 24 h, supernatants were collected and in maximum 50 μL of each supernatant was used for every measurement with the Lactate Dehydrogenase Activity Kit (Sigma; MAK066). To determine enzyme activity, the absorbance at 450 nm (A450) was measured with the CLARIOstar plate reader (BMG Labtech). LDH activity were calculated following the manufacturer's instruction. CTMs that incubated with 0.2% H2O2 in medium for 30 minutes at 37° C. served as positive control.

[6] = tested on: cardiac tissue mimetics (CTMs); assay: mRNA expression in CTMs (qPCR of titin isoforms, bulk RNA sequencing); format: cell-based, rat, human
Method: CTMs, heart tissues of neonatal pups and adult rats were collected into Lysing Matrix D tubes (MP Biomedical; 6913-500) and 700 μL of TriFast (VWR; 3010-100ML) was added. Cells and tissues were homogenized 3 times for 20 s following by 5 min. pause on ice. Total RNA was purified with the Direct-zol™ RNA MicroPrep kit (Zymo Research; R2060). The RNA concentration was determined by measuring absorption at 260 nm and 280 nm with the NanoDrop® ND 2000-spectrophotometer (Peq Lab).
cDNA was synthesized from 500 ng of total RNA with EcoDry Premix RNA to cDNA (Random Hexamers) (Clontech; 639546). qPCR was performed using 10 μL of iTaq™ Universal SYBR® Green Supermix (Bio-Rad; 172-5124), 1 μL of 10 μmol/L forward and reverse primer each, 1 μL of cDNA template and 7 μL of H2O in a Bio-Rad CFX96 Connect Real-Time PCR system. Primers using to quantify mRNA expression were ordered from Metabion (Table 2).
Bulk RNA sequencing was performed as previously described (J. U. G. Wagner, E. Chavakis, E. M. Rogg, M. Muhly-Reinholz, S. F. Glaser, S. Gunther, D. John, F. Bonini, A. M. Zeiher, L. Schaefer, M. J. Hannocks, R. A. Boon, S. Dimmeler, 2018, Arterioscler Thromb Vasc Biol 38(5), 1170-1177). […] Sequencing was performed on the NextSeq500 instrument (IIlumina) using v2 chemistry, resulting in minimum of 30M reads per library with 1×75 bp single end setup. […]

[7] = tested on: CTMs obtained from human iPSC; assay: Stress response of CTMs obtained from human iPSC (contraction frequency, volume, lactate); format: cell-based; settings: 200 μM PE
Method: After 10 days of culture, CTMs were treated with 200 μM Phenylephrine (PE), and in parallel, were cultured under conditions of hypoxia (3% O2). Videos of contracting CTMs were recorded for 1 min and analysed to observe the response. The contraction frequency was measured at day 3 (to obtain a short-term response) and day 20 (to obtain a long-term response). […] Human iPS cardiomyocytes (hiPS-CMs) were ordered from Fujifilm CDI and thawed before the culture. Human cardiac fibroblasts (hCFB) were cultured and trypsinized. The two cell types were mixed at a CM:FB ratio of 5:1 in plating medium (PM provided by CDI). The mixed cells were left to form cardiac tissue mimetics in 30 μL hanging drops containing PM with a density of 5000 hiPS-CMs and 1000 hCFB and incubated at 37° for four days. The cardiac tissue mimetics were then collected, and every single cardiac tissue mimetic was again distributed into each well of ultra-low-attachment (ULA) plates with maintenance medium (MM; provided by CDI). MM was changed every two days. After seven days, human IPS endothelial cells (hiPS-ECs) were thawed and added into each well at a CM:EC ratio of 2:1. A mixed medium of MM and EC growth medium (EGM; provided by CDI) at a 1:1 ratio was used and half of the medium was changed every second day. After 10 days cardiac tissue mimetics were harvested for further assays.

HUVEC spheroids = assay: Spheroid-based angiogenic sprouting assay; format: cell-based, human
Method: After 72 hours, cell culture supernatants were centrifuged (500×g, 5 minutes) to deplete dead cells and stored at −80° C.
Endothelial cell sprouting was studied by in vitro spheroid-based angiogenesis assays. In brief, HUVECs were trypsinized and transferred into a mixture of fully supplemented EBM™ and methylcellulose (80%:20%). […] After 24 hours, spheroids were collected, pelleted (200×g, 3 minuted), resuspended in methylcellulose supplemented with FCS (80%:20%) and embedded in a collagen Type-I gel (Corning; 354236). HUVEC spheroids were then either cultured with fully supplemented EBM (+/−VEGF (50 ng/mL; BioLegend; 583702) or +/−PE (200 μM)), maintenance medium or conditioned cell culture medium.

[8] = tested on: cardiac tissue mimetics (CTMs); assay: Contractility measurement of CTMs (spontaneous beats per minute; pacing at 1 Hz and 15 V); settings: PE-treated vs control, electric pacing 1 Hz; FIG. 8

CNC[C@H](O)c1cccc(O)c1 [PE, phenylephrine]
cardiomyocyte maturation and hypertrophy (sarcomeric α-actinin staining, sarcomere organization and density) ([1]; 200 μM PE, 10 days, vs control, FIGS. 5-7): significantly increased | mitochondrial function and mitochondrial density ([1]; PE-treated vs control CTMs, Atp5a1 staining, FIGS. 9-12): increased | glycolysis (basal extracellular acidification rate) ([2]; FIG. 11): reduction | oxidation metabolism (oxygen consumption rate) ([2]; FIGS. 9-10): increased | CTM growth (size as volume) [3]: significantly increased | filopodia formation in CTMs [4]: more filopodia | filopodia formation in CTMs ([4]; listed as phenylephrine): induces | number of branch points in CTMs ([4]; FIG. 14): increased | tube length (accumulated sprout length) in CTMs ([4]; FIG. 14): increased | tube thickness in CTMs ([4]; FIG. 14): increased | vascularization / angiogenesis of CTMs [4]: significantly augmented | vascularization / angiogenesis of CTMs ([4]; listed as phenylephrine): induces | extracellular lactate dehydrogenase (LDH) as marker of necrosis ([5]; mature CTMs with PE vs untreated control, FIG. 35): failed to reveal differences | cytotoxicity in CTMs (p-γ-H2AX staining, LDH activity) ([5]; phenylephrine-treated mature CTMs, FIGS. 34 and 35): no cytotoxicity | KEGG gene sets for adrenergic signaling, metabolism and contractility ([6]; PE stimulation vs untreated CTMs, FIG. 33): enrichment and elevated expression | titin isoform mRNA expression (N2B, N2BA2) ([6]; PE-treated vs control CTMs, FIG. 6): shift towards adult-type titin isoform expression | contraction frequency ([7]; day 3, FIG. 41): significantly increased | volume of the CTMs ([7]; day 3, FIG. 42): no significant change | lactate concentration in culture media ([7]; day 3, FIG. 43): significant increase | contraction frequency ([7]; day 20, FIG. 41): significantly increased | lactate concentration in culture media ([7]; day 20, FIG. 43): significant increase | volume of the CTMs ([7]; day 20, vs control, FIG. 42): significant increase | EC spheroid growth / vascular network growth and branching (cumulative sprout length), direct treatment (HUVEC spheroids; HUVEC spheroids, 200 μM PE or 50 ng/mL VEGF, 24 hours, FIG. 15): did not impact | EC growth and sprouting with conditioned medium of PE-stimulated CM (HUVEC spheroids; neonatal rat CM treated with PE 72 hours, supernatant on HUVEC spheroids 24 hours, FIG. 17): significantly increase | EC sprouting with conditioned medium of PE-stimulated FB (HUVEC spheroids; neonatal rat FB treated with PE 72 hours, supernatant on HUVEC spheroids 24 hours, FIG. 38): no effect | contractile amplitude in paced CTMs [8]: significant increase; also recorded: augment
